One assay relates to rat hepatic artery. Nature of the assay: Recording of tension: relaxation of isolated rat hepatic artery contracted with phenylephrine. The conditions noted are these: for effect on anandamide-induced relaxation / effect on AM404-induced relaxations: capsaicin 10 μM pre-treatment; for effect on anandamide-induced relaxation: 8-37 CGRP 2 μM; for effect on AM404-induced relaxations: 8-37 CGRP 3 μM, SR141716A 0.3 μM; for EC50: read-out: pEC50 of relaxation (converted); for vasodilator response (relaxation): α-latrotoxin 1 nM.

The subject of another assay is rat mesenteric artery. Nature of the assay: Recording of tension: relaxation of isolated rat mesenteric artery contracted with phenylephrine. The note with it: for effect on anandamide-induced relaxation / effect on relaxant effects of 1-arachidonylglycerol and 2-arachidonylglycerol: capsaicin 10 μM pre-treatment; for effect on anandamide-induced relaxation: 8-37 CGRP 2 μM; for effect on relaxant effects of 1-arachidonylglycerol and 2-arachidonylglycerol: rat mesenteric arteries, capsazepine 1 μM.

The test system of assay [1] is guinea pig basilar artery. Nature of the assay: Recording of tension: relaxation of isolated guinea pig basilar artery contracted with prostaglandin F2α. The conditions noted are these: for effect on anandamide-induced relaxation: capsaicin 10 μM pre-treatment, 8-37 CGRP 2 μM; for Emax / EC50: Cavia porcellus; for Emax: read-out: Emax of relaxation, guinea pig basilar artery; for EC50: read-out: pEC50 of relaxation, guinea pig basilar artery (converted).

Assay [2] relates to CGRP release from perivascular sensory nerves. Nature of the assay: Measurement of CGRP release from rat hepatic artery segments (radioimmunoassay). The method, then: Measurement of CGRP and cyclic AMP.
After 10 minutes the segments were removed and the physiological salt solution was evaporated.

The next assay concerns cyclic AMP content. Nature of the assay: Measurement of cyclic AMP content in rat hepatic artery segments.
For another assay, the target named is T1, vanilloid receptors (Rattus norvegicus, UniProt O35433).
T1 construct: To determine whether native vanilloid receptors might be involved in the action of anandamide; from tissue; host or cells: hepatic artery ring segments from female Wistar-Hannover rats
T1 sequence (O35433 whole entry): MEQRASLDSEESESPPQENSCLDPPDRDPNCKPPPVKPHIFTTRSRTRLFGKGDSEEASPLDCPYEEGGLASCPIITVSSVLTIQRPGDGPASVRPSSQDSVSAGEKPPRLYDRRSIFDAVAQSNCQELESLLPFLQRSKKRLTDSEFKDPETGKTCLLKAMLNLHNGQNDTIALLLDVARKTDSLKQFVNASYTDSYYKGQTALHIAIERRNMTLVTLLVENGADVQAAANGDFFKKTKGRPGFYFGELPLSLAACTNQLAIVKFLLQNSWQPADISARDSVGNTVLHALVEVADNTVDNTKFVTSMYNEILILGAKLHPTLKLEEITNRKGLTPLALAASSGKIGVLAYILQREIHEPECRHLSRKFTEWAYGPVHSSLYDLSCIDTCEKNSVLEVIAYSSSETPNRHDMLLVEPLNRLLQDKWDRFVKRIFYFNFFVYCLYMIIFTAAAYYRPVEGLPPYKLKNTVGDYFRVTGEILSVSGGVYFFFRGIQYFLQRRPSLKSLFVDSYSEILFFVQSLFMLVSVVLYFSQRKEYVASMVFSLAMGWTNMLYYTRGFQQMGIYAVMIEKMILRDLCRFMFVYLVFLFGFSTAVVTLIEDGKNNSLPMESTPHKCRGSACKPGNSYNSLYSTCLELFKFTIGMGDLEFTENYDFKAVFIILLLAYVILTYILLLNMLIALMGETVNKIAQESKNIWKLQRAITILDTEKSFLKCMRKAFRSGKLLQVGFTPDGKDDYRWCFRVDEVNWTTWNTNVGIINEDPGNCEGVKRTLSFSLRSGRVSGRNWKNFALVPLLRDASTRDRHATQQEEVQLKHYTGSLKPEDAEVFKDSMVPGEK
Nature of the assay: Schild analysis of capsazepine antagonism of relaxation in rat hepatic artery. The note with it: for slope of the Schild regression line: mean±SEM; for Kb: pA2 (Schild plot). The procedure: Recording of tension. Experiments were performed on hepatic (400 μm outer diameter) and mesenteric (200 μm outer diameter) arteries from female Wistar-Hannover rats (200-250 g) and on basilar arteries (300 μm outer diameter) from male guinea pigs. […] All experiments were performed in the presence of N^G-nitro-L-arginine (0.3 mM) and indomethacin (10 μM) to eliminate any contribution of nitric oxide and cyclooxygenase products, respectively (refs. 38, 23). Relaxant responses were studied in preparations contracted with phenylephrine (rat hepatic and mesenteric arteries) and prostaglandin F2α (guinea pig basilar artery) (refs. 38, 43). When stable contractions were obtained, agonists were added cumulatively to determine concentration-response relationships.
Some preparations were pre-treated with capsaicin for 1 hour followed by washout for 20 minutes. Each vessel segment was exposed to only one treatment. The experiments were carried out with the approval of the local ethics committee.
Calculations and statistics. Relaxations are expressed as percentage reversal of the prevailing contraction (100% indicates a complete reversal to basal tension). […] Data are presented as means±s.e.mean (vertical lines in figures), and n indicates the number of vascular segments (animals) examined. pA2 and slope values of the Shild plots were estimated according to the Jackknife method (ref. 46). Statistical analysis was performed by using Student's t-test (two-tailed), Mann-Whitney U-test, or analysis of variance (ANOVA) on log transformed values (cyclic AMP) followed by Bonferroni Dunn's post hoc test (Statview 4.12). Statistical significance was accepted when P<0.05.

Setting [3] is: rat mesenteric artery, capsazepine 3 μM.
The mark [4] stands for this setting: guinea pig basilar artery, capsazepine 3 μM.
The mark [5] stands for this setting: guinea pig basilar artery, 10 μM.
[6] abbreviates: Rattus norvegicus, control (agonist alone).
[7] abbreviates: Rattus norvegicus, in presence of SR141716A (0.3 μM).
Where [8] appears, read: in presence of SR141716A (0.3 μM).
Setting [9] is: segments pre-treated with capsaicin (10 μM).

Read-outs that look alike come from different tables or passages of the source. No end group written: not given here.

For orientation: Emax means the greatest response seen or fitted, relative to the assay's reference. Broadly, the Kb is the affinity of an antagonist, worked out from how it opposes an agonist. A low value points to a more potent antagonist.

As to “8-37 CGRP: selective CGRP receptor antagonist (VTHRLAGLLSRSGGVVKNNFVPTNVGSKAF; ends and bridges not checked; UniProt P06881 90-119, looked up, fragment)”, the “effect on anandamide-induced relaxation” value (with rat hepatic artery (capsazepine 3 μM); in the assay on rat mesenteric artery (setting [3]); in assay [1] (setting [4])) was “inhibited” in each case. Moreover, the “effect on AM404-induced relaxations” value in the assay on rat hepatic artery (capsazepine 3 μM) is “abolished”.
As to `CCCCC/C=C\C/C=C\C/C=C\C/C=C\CCCCOCC(O)CO` (stereo not drawn) [1-arachidonylglycerol], in the assay with rat mesenteric artery (rat mesenteric arteries contracted with phenylephrine), the vasodilator action result is given as “vasodilators”.
On to `CCCCCCC(C)(C)c1ccc([C@@H]2C[C@H](O)CC[C@H]2CCCO)c(O)c1` [CP 55,940], for which the “relaxation at 10 μM” value (in the assay on rat hepatic artery (10 μM); in assay [1] (setting [5])) was “significant relaxation” each time. In addition, the “relaxation after pre-treatment with capsaicin” value in the assay on rat hepatic artery (10 μM, capsaicin (10 μM) pre-treatment) is “resistant to pre-treatment with capsaicin”; in assay [1] (guinea pig basilar artery, 10 μM, capsaicin (10 μM) pre-treatment) it was “resistant to pre-treatment with capsaicin”.
For `CCCCCCC(C)(C)c1cc(O)c2c(c1)OC(C)(C)[C@@H]1CC=C(CO)C[C@@H]21` [HU 210], the relaxation result (in the assay on rat hepatic artery; in assay [1] (guinea pig basilar artery)) was “did not produce any relaxation” each time.
As for `Cc1c(C(=O)NN2CCCCC2)nn(-c2ccc(Cl)cc2Cl)c1-c1ccc(Cl)cc1.Cl` [SR141716A, N-(piperidin-1-yl)-5-(4-chlorophenyl)-1-(2,4-dichlorophenyl)-4-methyl-1H-pyrazole-3-carboxamide hydrochloride], the “effect on AM404-induced relaxations” value in the assay on rat hepatic artery (capsazepine 3 μM) is reported as “without effect”.
Consider `Cc1c(C(=O)c2cccc3ccccc23)c2cccc3c2n1[C@H](CN1CCOCC1)CO3` [WIN 55,212-2], for which the relaxation result (in the assay on rat hepatic artery; in assay [1] (guinea pig basilar artery)) was “did not produce any relaxation” throughout.
In the case of `CCCCC/C=C\C/C=C\C/C=C\C/C=C\CCCC(=O)NCCO` [anandamide, arachidonylethanolamide], the “relaxation at 10 μM” value (with rat hepatic artery (10 μM); in assay [1] (setting [5])) was “completely relaxed” in each case. Also, the Emax in the assay with rat hepatic artery (setting [6]) was 100 ± 1%; in the assay on rat hepatic artery (setting [7]), 97 ± 1%; in assay [1] (control (agonist alone)) it was 92 ± 3%; in assay [1] (setting [8]), 91 ± 2%. The EC50 with rat hepatic artery (setting [6]) was 355 nM; in assay [1] (control (agonist alone)) it was 955 nM; in assay [1] (setting [8]) it was 776 nM. Further, the pEC50 of relaxation in the assay on rat hepatic artery (control (agonist alone)) is 6.49±0.01; in the assay on rat hepatic artery (setting [8]), 6.44±0.12. In assay [2] (anandamide 10 μM, 10 minute exposure), the “release of CGRP” value is reported as “significant release of CGRP”. The “release of CGRP after capsaicin pre-treatment” value in assay [2] (setting [9]) is on record as “absent”. Also, the “tissue content of cyclic AMP” value in the assay on cyclic AMP content (anandamide 10 μM or CGRP 10 nM, 5 minutes) is listed as “increase in tissue content of cyclic AMP”. Also, the “tissue content of cyclic AMP after capsaicin pre-treatment” value with cyclic AMP content (setting [9]) is on record as “absent”.
Regarding `CCCCC/C=C\C/C=C\C/C=C\C/C=C\CCCC(=O)O` [arachidonic acid], the “relaxation at 10 μM” value (in the assay on rat hepatic artery (10 μM); in assay [1] (setting [5])) was “inactive” each time.
Turning to `COc1cc(CNC(=O)CCCC/C=C/C(C)C)ccc1O` [capsaicin], the “relaxation at 10 μM” value (in the assay on rat hepatic artery (10 μM); in assay [1] (setting [5])) was “completely relaxed” in each case. Further, the maximum response (Emax) stood at 99 ± 1% with rat hepatic artery (setting [6]) and 90 ± 3% in the assay on rat hepatic artery (Rattus norvegicus, in presence of SR141716A (10 μM)). The “effect on anandamide-induced relaxation” value (in the assay on rat hepatic artery (capsazepine 3 μM); with rat mesenteric artery (setting [3]); in assay [1] (setting [4])) was “abolished” each time. In the assay with rat hepatic artery (capsazepine 3 μM), the “effect on AM404-induced relaxations” value was “abolished”. The EC50 in the assay with rat hepatic artery (control (agonist alone)) is 4.27 nM. The pEC50 of relaxation in the assay on rat hepatic artery (in presence of SR141716A (10 μM)) came to 7.42±0.12. In addition, in the assay on rat mesenteric artery, the “effect on relaxant effects of 1-arachidonylglycerol and 2-arachidonylglycerol” value was “abolished”.
In the case of `Oc1cc2c(cc1O)CN(C(=S)NCCc1ccc(Cl)cc1)CCC2` [capsazepine], in the assay on rat hepatic artery (capsazepine 3 μM), the “effect on anandamide-induced relaxation” value is “significantly inhibited”, the “effect on AM404-induced relaxations” value was “significant right-ward shift” and the “effect on capsaicin-induced relaxation” value was “significantly inhibited”. In the assay with rat mesenteric artery, the “effect on relaxant effects of 1-arachidonylglycerol and 2-arachidonylglycerol” value is given as “inhibited”. In addition, in the assay with rat mesenteric artery (setting [3]), the “effect on anandamide-induced relaxation” value was “significantly inhibited” and the “effect on capsaicin-induced relaxation” value is “significantly inhibited”. Moreover, in assay [1] (setting [4]), the “effect on anandamide-induced relaxation” value is recorded as “significantly inhibited” and the “effect on capsaicin-induced relaxation” value is listed as “significantly inhibited”. The “effect on anandamide-induced release of CGRP” value in assay [2] (capsazepine 10 μM) was “inhibited”. Also, on vanilloid receptors (capsaicin as agonist), the “slope of the Schild regression line” value is 2.12±0.36 and the antagonist dissociation constant (Kb) was 575 nM. In addition, on vanilloid receptors (methanandamide as agonist), the “slope of the Schild regression line” value was 2.41±0.32 and the antagonist equilibrium constant (Kb) was 457 nM.
With `NCCO` [ethanolamine], the “relaxation at 10 μM” value (with rat hepatic artery (10 μM); in assay [1] (setting [5])) was “inactive” each time.
`CCCCC/C=C\C/C=C\C/C=C\C/C=C\CCCC(=O)N[C@H](C)CO` [methanandamide]: in the assay on rat hepatic artery (setting [6]), the Emax is 99 ± 1% and the EC50 is 316 nM. The Emax with rat hepatic artery (setting [7]) was 99 ± 1%. In the assay with rat hepatic artery (control (agonist alone)), this molecule showed an Emax of relaxation of 97±1% and a pEC50 of relaxation of 6.53±0.08. Moreover, in the assay on rat hepatic artery (setting [8]), the pEC50 of relaxation turned out to be 6.30±0.04.
For the molecule `CCCCCCCCCCCCCCCC(=O)NCCO` [palmitylethanolamide], the relaxation entry (with rat hepatic artery; in assay [1] (guinea pig basilar artery)) was “did not produce any relaxation” in each case.

B1: α-latrotoxin (protein, UniProt P23631 21-1199, looked up)
Alpha-latrotoxin-Lt1a: EGEDLTLEEKAEICSELELQQKYVDIASNIIGDLSSLPIAGKIAGTIAAAAMTATHVASGRLDIEQTLLGCSDLPFDQIKEVLENRFNEIDRKLDSHSAALEEITKLVEKSISVVEKTRKQMNKRFDEVMKSIQDAKVSPIISKINNFARYFDTEKERIRGLKLNDYILKLEEPNGILLHFKESRTPTDDSLQAPLFSIIEEGYAVPKSIDDELAFKVLYALLYGTQTYVSVMFFLLEQYSFLANHYYEKGYLEKYDEYFNSLNNVFLDFKSSLVGTGTSNNEGLLDRVLQVLMTVKNSEFLGLEKNGVDEMLNEKINLFNKIKEEIEGKQKMTLSETPENFAQISFDKDITTPIGDWRDGREVRYAVQYASETLFSKISHWSDPVSVREKACPTLRMPVDQTRRNVLVFRKFDSSKPQLVGEITPYLSNFIDIDRDLYNAASNPDSAVGFKEFTKLNYDGANIRATFDHGRTVFHAAAKSGNDKIMFGLTFLAKSTELNQPDKKGYTPIHVAADSGNAGIVNLLIQRGVSINSKTYHFLQTPLHLAAQRGFVTTFQRLMESPEININERDKDGFTPLHYAIRGGERILEAFLNQISIDVNAKSNTGLTPFHLAIIKNDWPVASTLLGSKKVDINAVDENNITALHYAAILGYLETTKQLINLKEINANVVSSPGLLSALHYAILYKHDDVASFLMRSSNVNVNLKALGGITPLHLAVIQGRKQILSLMFDIGVNIEQKTDEKYTPLHLAAMSKYPELIQILLDQGSNFEAKTNSGATPLHLATFKGKSQAALILLNNEVNWRDTDENGQMPIHGAAMTGLLDVAQAIISIDATVVDIEDKNSDTPLNLAAQNSHIDVIKYFIDQGADINTRNKKGLAPLLAFSKKGNLDMVKYLFDKNANVYIADNDGMNFFYYAVQNGHLNIVKYAMSEKDKFEWSNTDNNRRDECPNEECAISHFAVCDAVQFDRIEIVKYFVGTLGNFAICGPLHQAARYGHLDIVKYLVEEEFLSVDGSKTDTPLCYASENGHFTVVQYLVSNGAKVNHDCGNGMTAIDKAITKNHLQVVQFLAANGVDFRRKNSRGTTPFLTAVAENALHIAEYLIREKRQDININEQNVDKDTALHLAVYYKNLQMIKLLIKYGIDVTIRNAYDKTALDIAIDAKFSNIVEYLKTKSGKFRR
With B1, the “vasodilator response (relaxation)” value with rat hepatic artery (CGRP 8-37 (2 μM)) was −8±3%; with rat hepatic artery (capsaicin pre-treatment), −16±8%; in the assay on rat hepatic artery (capsazepine (3 μM)), 93±2%; in the assay with rat hepatic artery (control) it was 98±1%.

Source of the values: US20040204486A1, “Anandamide and structurally related lipids as vanilloid receptor modulators” (priority 2000, published 2004).
